In patent US4459304A, “Combating pests with 2-anilino-3,5-dinitro-benzotrifluorides” (Bayer Aktiengesellschaft, priority 1977, dated 1984) one finds mortality and inhibition data, which are given here for 15 compounds.

As usually defined, the mortality is the percentage killed. Read a low mortality as a weak lethal effect. Broadly, the inhibition is the percentage by which the read-out fell short of the control.

Assay type in all cases: in vivo
Experiment [1] has as its system two-spotted spider mite (Tetranychus urticae). Nature of the experiment: Tetranychus test (resistant), degree of destruction of spider mites on bean plants. The following applies: 48 h, after 2 days; for mortality at 0.0001 %: active compound concentration 0.0001%; for mortality at 0.001 %: active compound concentration 0.001%. How it is done: (§1) Solvent: 3 parts by weight of dimethylformamide
(§2) Emulsifier: 1 part by weight of alkylaryl polyglycol ether
To produce a suitable preparation of active compound, 1 part by weight of the active compound was mixed with the stated amount of solvent and the stated amount of emulsifier and the concentrate was diluted with water to the desired concentration.
Bean plants (Phaseolus vulgaris) which were heavily infested with the two-spotted spider mite (Tetranychus urticae) in all stages of development were sprayed with the preparation of the active compound until dripping wet.
After the specified periods of time, the degree of destruction was determined as a percentage: 100% meant that all of the spider mites were killed whereas 0% meant that none of the spider mites were killed.

The next experiment deals with Laphygma exempta (eggs). Nature of the experiment: Development-inhibiting action, Laphygma exempta (eggs). The following applies: concentration 10 ppm, up to larvae of third stage.
Description: (§3) Examples 8 and 9, which are given below, show the arthropod development-inhibiting action of the compounds according to the invention without implying a limitation in respect of the breadth of action of these compounds. In the experiments, the morphological changes, such as half-pupated insects, incompletely slipped larvae or caterpillars, defective wings, pupal cuticula in the case of imagos and the like are rated as malformations over the entire stated development of the test insects. The sum of the morphological malformations, together with the insects killed during the sloughing or the metamorphosis, is given in percent of the test insects.
Test insect: Laphygma exempta (eggs)
Solvent: 10 parts by weight of acetone
as §2
To produce a suitable preparation of active compound, 2 parts by weight of active compound were mixed with the stated amount of solvent, emulsifier and sufficient water to produce a 1% strength mixture, which was diluted with water to the desired concentration.
Deposited eggs, at the rate of 30 eggs on a filter-paper, were moistened with 1 ml of active compound solution of the stated concentration in ppm (parts per million) and were observed, in plastic boxes, until the young larvae slipped. The young larvae were fed with corn leaves which had been sprayed with the stated concentration of active compound solution on the same day as the eggs.
The development of the test insects was observed up to the larvae of the third stage.
As a control, deposited eggs were treated in the same manner with solvent and emulsifier of the corresponding concentration, and feeding was carried out with corn leaves.

In experiment [2] the test system is Ceratitis capitata (eggs). Put plainly: Development-inhibiting action, Ceratitis capitata (eggs). The following applies: concentration 10 ppm in synthetic feed, eggs until flies slipped.
Description: as §3
Test insect: Ceratitis capitata (eggs), 20 specimens
Feed: Synthetic feed (carrot powder with yeast powder)
Solvent: 20 parts by weight of acetone
Emulsifier: 5 parts by weight of alkylaryl polyglycol ether
To produce a suitable preparation of active compound, 4 parts by weight of active compound were mixed with the stated amount of solvent, emulsifier and sufficient water to produce a 1% strength mixture which was diluted with water to the desired concentration.
The eggs of the test insects were placed on a dish with synthetic feed, into which the selected concentration of the active compound mixture was incorporated so that the stated amount of active compound in ppm (parts per million) was obtained. The development was observed until the flies slipped.
As a control, synthetic feed mixed only with solvent and emulsifier of the stated concentration was presented.

Experiment [3] deals with mustard beetle larvae (Phaedon cochleariae). Put plainly: Phaedon larvae test, degree of destruction on cabbage leaves. The following applies: 72 h, after 3 days; for mortality at 0.001 %: active compound concentration 0.001%; for mortality at 0.01 %: active compound concentration 0.01%. The procedure:
as §1
Emulsifier: 1 part by weight of alkylarly polyglycol ether
To produce a suitable preparation of active compound, 1 part by weight of the active compound was mixed with the stated amount of solvent containing the stated amount of emulsifier and the concentrate was diluted with water to the desired concentration.
Cabbage leaves (Brassica oleracea) were sprayed with the preparation of the active compound until dripping wet and were then infested with mustard beetle larvae (Phaedon cochleariae).
After the specified periods of time, the degree of destruction was determined in %: 100% meant that all of the beetle larvae had been killed whereas 0% meant that none of the beetle larvae had been killed.

On to `O=[N+]([O-])c1cc([N+](=O)[O-])c(Nc2cccc(OC(F)(F)F)c2)c(C(F)(F)F)c1` [Compound 24], for which, in experiment [1], the mortality at 0.0001 % was 95% and the mortality at 0.001 % amounted to 100%.
In experiment [1], `O=[N+]([O-])c1cc([N+](=O)[O-])c(Nc2c(Cl)cccc2Cl)c(C(F)(F)F)c1` [A, reference compound] registered a mortality at 0.0001 % of 0% and a mortality at 0.001 % of 98%. The same compound had an inhibition at 10 ppm in the experiment on Laphygma exempta (eggs) of 20%.
With `O=[N+]([O-])c1cc([N+](=O)[O-])c(Nc2ccc(S(=O)(=O)C(F)(F)F)cc2Cl)c(C(F)(F)F)c1` [Compound 7], at 10 ppm the inhibition in experiment [2] was 100%.
With `O=[N+]([O-])c1cc([N+](=O)[O-])c(Nc2ccc(OC(F)(F)F)cc2Cl)c(C(F)(F)F)c1` [Compound 13, 2-(2-chloro-4-trifluoromethoxy-anilino)-3,5-dinitro-benzotrifluoride], in experiment [1], the mortality at 0.0001 % came to 100% and the mortality at 0.001 % was determined as 100%. Also, in experiment [3], the mortality at 0.001 % stood at 85% and the mortality at 0.01 % is 100%. In the experiment on Laphygma exempta (eggs), 10 ppm produced 100% inhibition. Moreover, in experiment [2], 10 ppm produced 100% inhibition.
As for `O=[N+]([O-])c1cc([N+](=O)[O-])c(Nc2ccc(SC(F)(F)F)cc2)c(C(F)(F)F)c1` [Compound 4], in experiment [1], the mortality at 0.0001 % amounted to 99% and the mortality at 0.001 % is 100%. In experiment [3], the mortality at 0.001 % is 50% and the mortality at 0.01 % was 100%.
On to `O=[N+]([O-])c1cc([N+](=O)[O-])c(Nc2cc(SC(F)(F)F)ccc2Cl)c(C(F)(F)F)c1` [Compound 22], for which the mortality at 0.001 % in experiment [1] stood at 100%.
In experiment [1], `CSc1ccc(Nc2c([N+](=O)[O-])cc([N+](=O)[O-])cc2C(F)(F)F)c(C(F)(F)F)c1` [Compound 10] came in with a mortality at 0.0001 % of 50% and a mortality at 0.001 % of 98%.
Take `O=[N+]([O-])c1cc([N+](=O)[O-])c(Nc2ccc(OC(F)(F)F)c(Cl)c2)c(C(F)(F)F)c1` [Compound 9]: the mortality at 0.0001 % in experiment [1] was 100%. This compound also gave a mortality at 0.001 % in experiment [1] of 100%. Further, the inhibition at 10 ppm (with Laphygma exempta (eggs); in experiment [2]) was 100% in each case.
Regarding `O=[N+]([O-])c1cc([N+](=O)[O-])c(Nc2cccc(SC(F)(F)F)c2)c(C(F)(F)F)c1` [Compound 25], in experiment [1], the mortality at 0.0001 % worked out at 95% and the mortality at 0.001 % was found to be 100%.
For `O=[N+]([O-])c1cc([N+](=O)[O-])c(Nc2cc(S(=O)(=O)C(F)(F)F)ccc2Cl)c(C(F)(F)F)c1` [Compound 14], in experiment [3], the mortality at 0.001 % was found to be 80% and the mortality at 0.01 % came to 100%.
In experiment [1], `O=[N+]([O-])c1cc([N+](=O)[O-])c(Nc2ccc3c(c2)C(F)(F)OC(F)(F)O3)c(C(F)(F)F)c1` [Compound 2] showed a mortality at 0.0001 % of 100% and a mortality at 0.001 % of 100%.
`O=[N+]([O-])c1cc([N+](=O)[O-])c(Nc2cc(Cl)ccc2Cl)c(C(F)(F)F)c1` [B, reference compound]: in experiment [3], the mortality at 0.001 % turned out to be 0% and the mortality at 0.01 % was 100%.
In experiment [2], `O=[N+]([O-])c1cc([N+](=O)[O-])c(Nc2c(Cl)cc(S(=O)(=O)C(F)(F)F)cc2Cl)c(C(F)(F)F)c1` [Compound 8] had an inhibition at 10 ppm of 100%.
Consider `O=[N+]([O-])c1cc([N+](=O)[O-])c(Nc2ccc(OC(F)(F)F)cc2)c(C(F)(F)F)c1` [Compound 1, 2-(4-trifluoromethoxy-anilino)-3,5-dinitro-benzotrifluoride], for which, in experiment [1], the mortality at 0.0001 % was determined as 70% and the mortality at 0.001 % is 100%. Also, in experiment [2], the inhibition at 10 ppm was found to be 100%.
With `O=[N+]([O-])c1cc([N+](=O)[O-])c(Nc2ccccc2SC(F)(F)F)c(C(F)(F)F)c1` [Compound 21], in experiment [1], the mortality at 0.0001 % worked out at 50% and the mortality at 0.001 % is 100%.
